# Laboratory results taken from US8809368B2, “Compounds affecting gap junction activity” (Kansas State University Research Foundation, priority 2006, dated 2014).
# Columns and labels:
# PKCγ = test: Expression of PKCγ; type: cell-based; conditions: 100, 200, 300 and 500 nM, 24 hours
# Description: However, PQ3 has an opposite effect on mammary cancer cell lines. […] A summary of PQ-mediated GJIC activity and colony growth in breast and colon cancer cells is presented in Tables 1, 2, and 3, as well as FIGS. 10-13. In FIG. 10, SW620 cells were dosed for 24 hours with PQ1 at 100, 200, 300, and 500 nM. The gap junction activity was measured as a percent of control, as previously described. It was seen that all concentrations on PQ1 increased the gap junction activity in SW620 colon cancer cells as compared to the control. In FIG. 11, the effect of PQ1 on the expression of PKCγ was studied at concentrations of 100, 200, 300 and 500 nM PQ1 for 24 hours. It is seen in FIG. 11 that PQ1 has no effect on the expression of PKCγ at the levels tested. In FIGS. 12 and 13, the effect of PQ1 on the colony growth of SW620 colon cancer cells was measured with 1-100 nM PQ1 (FIG. 12) and 10 uM PQ1 (FIG. 13).
# active caspase 3 = test: Western blot of active caspase 3 in T47D cells; type: cell-based, human
# Description: T47D cells were treated with 0, 200 nM, 500 nM and 1 μM PQ1 for 24 hours. Treatment with succinic acid was used as control. Western blot analysis was performed. Nitrocellulose membrane was blotted with the active form of caspase 3 antibodies (16 kDa). Actin acts as loading control. Graphical presentation of three experiments are presented with statistical significance, p<0.05.
# Western Blot analysis: Cells were grown in RPMI media until they were 90% confluent in 75 cm2 flasks. Cells were dosed with 200, 500 nM of PQ1 for 24 hours. Cells were harvested with lysis buffer and centrifugated. Cell lysate was run on a 12% SDSpolyacrylamide gel electrophoresis (PAGE) and transferred to nitrocellulose membrane. Membrane was incubated with Caspase Antibody. Western blots were detected by enhanced chemiluminescence detection reagents.
# The effect of PQ1 on apoptosis was further examined by detecting the active form of caspase 3. T47D cells were treated with […] PQ1 for 24 hours. Western blot analysis was performed using active form of caspase 3 antibodies. A 200 nM PQ1 causes 1.5-fold increase of active caspase 3 compared to control (FIG. 18). However, a decrease of caspase is observed in higher concentrations, a common effect in apoptotic protein expression. This is due to the cytotoxicity response of the cells.
# Western Blot Analysis. Cells were grown in serum supplemented RPMI media until they were 90% confluent in 75 cm^2 flasks. Cells were kept in starving media containing phenol red-free DMEM with 5% charcoal dextran stripped serum, overnight. Cells were dosed with 0, 10, 100, 200 and 500 nM of PQ1 for 24 hours. Cells were washed three times with cold PBS and then were harvested using lysis buffer (20 mM Tris pH 7.5, 0.5 mM EDTA, 0.5 mM EGTA, 0.5% Triton X-100) with 1:1000 dilution of protease inhibitors (Sigma-Aldrich, Saint Louis, Mo.). Cell lysate was sonicated and centrifuged at 13,000 rpm for 30 minutes at 4° C. […] Western blots were detected by enhanced chemiluminescence detection reagents (Pierce, Rockford, Ill., USA).
# caspase-3 = test: CoCl2 chemical hypoxia in R28 cells, caspase-3 activation by Western blot; type: cell-based, rat
# Description: (§1) (A) About 70% confluent retinal R28 cells were treated with 100, 200 and 500 μM CoCl2 for 24 h with or without the pre-treatment of PQ1 (10 μM, 40 min) in a cell culture chamber (5% CO2, room air, 37° C.). Caspase-3 activation was determined by Western blotting in whole cell homogenates (WCH). (B) HIF1α stabilization was measured in the nuclear extracts (NE) after treatment with 500 μM CoCl2 at different time intervals with or without the pretreatment of PQ1. […] Levels of Cx43 and phosphoCx43-Ser368 are measured in WCH. β-Actin is used as a loading control.
# Approximately 70% confluent retinal R28 cells were pre-incubated with PQ1 (10 μM, 40 min), followed by CoCl2 treatments at 100, 200 and 500 μM for different time periods in a cell culture chamber (5% CO2, room air, 37° C.). Hypoxia induction was confirmed by testing the hypoxia-inducible factor 1-α (HIF1α) protein expression levels in nuclear extracts by Western blotting.
# Western blot. Western blotting was performed as described previously. […]
# Next, it was determined whether PQ1 inhibition of gap junctions could prevent retinal neurosensory R28 cells from apoptosis using a chemical (CoCl2)-induced ischemia system as our model. […]
# Cx43 = test: Western blot of Cx43 and phosphoCx43-Ser368 in R28 cells; type: cell-based, rat; conditions: PQ1, CoCl2 or a combination of both
# Description: as §1
# Western blot. Western blotting was performed as described previously. Anti-Cx43 was purchased from Fred Hutchinson cancer research center (# Cx43NT1), anti-HIF1a was purchased from Novus Biologicals (# NB100-105), and anti-caspase-3 (# 9661), phosphor-Cx43 (Ser368) (#3511S) were purchased from Cell Signaling Technology and anti-b-actin was purchased from Sigma (# A5441).
# Next, it was determined whether PQ1 inhibition of gap junctions could prevent retinal neurosensory R28 cells from apoptosis using a chemical (CoCl2)-induced ischemia system as our model. […] CoCl2 at 500 μM caused stabilization of HIF1a in the nuclear extracts and this stabilization started as early as three hours after treatment (FIG. 20B). This confirmed induction of hypoxia. […]
structure (smiles),measurement,setting,value
"COc1cc(NCCCN)c2nccc(C)c2c1Oc1cccc(C(F)(F)F)c1.O=C(O)CCC(=O)O [PQ1, 6-Methoxy-8-[(3-aminopropyl)amino]-4-methyl-5-(3-trifluoromethylphenyloxy) quinoline succinic acid]",expression of PKCγ,PKCγ,no effect
same,increase of active caspase 3,"active caspase 3; 200 nM, 24 hours, compared to control",1.5 fold
same,increase in the expression of active caspase 3,active caspase 3; 200 and 500 nM,50%
same,active caspase 3,"active caspase 3; higher concentrations, 24 hours",decrease
same,CoCl2-induced activation of caspase-3,"caspase-3; PQ1 10 μM 40 min pre-incubation, then 500 μM CoCl2 24 h",blocked the activation of caspase-3 substantially
same,activation of caspase-3,caspase-3; PQ1 alone,did not cause activation
same,Cx43 gap junction protein levels,Cx43,did not cause any change
same,phosphorylation of Cx43 at residue ser368,Cx43,did not cause any change
